The source of these data is US9676715B2, “Bis-indolic derivatives, a process for preparing the same and their uses as a drug” (UNIVERSITE JOSEPH FOURIER, priority 2011, dated 2017).

One data set relates to S. aureus. The settings on record: penicillin M compounds; cited from earlier work.
Data set [1] relates to S. aureus ATCC 106414 (VISA). As to the kind of experiment: MIC, microdilution method (9.1). The settings on record: Staphylococcus aureus, read after 18 h, read-out: MIC. The class given is cell-based, Staphylococcus aureus. An outline of the steps:
(§1)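 Each strain is grown in Mueller Hinton broth with indolic compounds at twofold increments (final 0.50-128 mg/L), starting from 5×10^5 CFU/ml. Plates incubate at 37° C. in ambient air, as set out by CLSI M07-A8.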
On the technique in general: Broth dilution looks for growth in wells or tubes with falling amounts of substance.

For the next data set, the system named is S. aureus ATCC 25923. As to the kind of experiment: MIC, microdilution method (9.1). Type of data set: cell-based, Staphylococcus aureus. As to conditions: Staphylococcus aureus, ATCC25923, read after 18 h, read-out: MIC. An outline of the steps: as §1
The next data set concerns S. aureus ATCC 29213. The data set can be described thus: MIC, microdilution method (9.1). The class given is cell-based, Staphylococcus aureus. The settings on record: Staphylococcus aureus, ATCC29213, read after 18 h, read-out: MIC. An outline of the steps:
as §1

Data set [2] deals with S. aureus ATCC 33592 (MRSA). As to the kind of experiment: MIC, microdilution method (9.1). As to conditions: Staphylococcus aureus, read after 18 h, read-out: MIC. Type of data set: cell-based, Staphylococcus aureus. An outline of the steps:
as §1

The subject of a further data set is S. aureus ATCC 6538. The data set can be described thus: MIC, microdilution method (9.1). Type of data set: cell-based, Staphylococcus aureus. As to conditions: Staphylococcus aureus, ATCC6538, read after 18 h, read-out: MIC. An outline of the steps: as §1
The test system of a further data set is S. aureus ATCC 9144. The data set can be described thus: MIC, microdilution method (9.1). The class given is cell-based, Staphylococcus aureus. The settings on record: Staphylococcus aureus, ATCC9144, read after 18 h, read-out: MIC. An outline of the steps:
as §1

Another data set concerns S. aureus CIP 103428. As to the kind of experiment: MIC, microdilution method (9.1). As to conditions: Staphylococcus aureus, CIP103428, read after 18 h, read-out: MIC. Type of data set: cell-based, Staphylococcus aureus. An outline of the steps: as §1
Data set [3] has as its system S. aureus CIP 65.25 (MRSA). As to the kind of experiment: MIC, microdilution method (9.1). Type of data set: cell-based, Staphylococcus aureus. The settings on record: Staphylococcus aureus, read after 18 h, read-out: MIC. An outline of the steps: as §1
Another data set concerns S. aureus CIP 65.6. As to the kind of experiment: MIC, microdilution method (9.1). As to conditions: Staphylococcus aureus, CIP65, read after 18 h, read-out: MIC. Type of data set: cell-based, Staphylococcus aureus. An outline of the steps: as §1
Another data set has as its system S. aureus SA-1199B. As to the kind of experiment: MIC, microdilution method (9.1). Type of data set: cell-based, Staphylococcus aureus. As to conditions: Staphylococcus aureus, SA1199B, 18 h. An outline of the steps:
as §1

The subject of data set [4] is S. epidermidis ATCC 12228. The data set can be described thus: MIC, microdilution method (9.1). Type of data set: cell-based, Staphylococcus epidermidis. The settings on record: Staphylococcus epidermidis, ATCC12228, read after 18 h, read-out: MIC. An outline of the steps:
as §1

Data set [5] relates to S. epidermidis CIP 103627. As to the kind of experiment: MIC, microdilution method (9.1). The class given is cell-based, Staphylococcus epidermidis. As to conditions: Staphylococcus epidermidis, CIP103627, read after 18 h, read-out: MIC. An outline of the steps:
as §1

The next data set deals with S. epidermidis CIP 81.55. The data set can be described thus: MIC, microdilution method (9.1). Type of data set: cell-based, Staphylococcus epidermidis. The settings on record: Staphylococcus epidermidis, CIP81, read after 18 h, read-out: MIC. An outline of the steps: as §1
Data set [6] has as its system Staphylococcus aureus 1199B (overexpression of the NorA efflux pump). The data set can be described thus: Efflux pump inhibition assay with sub-inhibitory ciprofloxacin. As to conditions: S. aureus 1199B. The class given is cell-based. The protocol: (§2) The efflux pump inhibition potential of the bis-indolic derivatives was tested using two steps.
(§3) The following experimental protocol was used: indolic derivatives (initially solubilised in DMSO at 10 mg/mL) were dispensed in a 96-wells microplate by two fold serial dilutions in Muller-Hinton medium (MH, Bio Rad) using a Biomek 2000 (Beckman) handling robot. 100 μL of the bacterial inoculum (an overnight culture at 37° C. in 5 mL MH diluted 100-fold) was then added in each well. The total volume was 200 μL in each well and the final bacteria concentration 10^6 CFU/mL (CFU: colony forming unit). The highest final indolic derivative concentration was 128 mg/L. Growth was assayed with a microplate reader by monitoring absorption at 620 nm after 1, 2, 5, 7 and 24 h incubation at 37° C. In addition, the plates were read visually after 24 hours incubation. Cultures containing 5 μL DMSO were used as growth controls. In addition, two controls containing a sub-inhibitory or a inhibitory antibiotic concentration for the tested strain were performed. The antibiotics used were ampicillin (0.5 and 32 μg/mL) for E. coli, kanamycin (0.5 and 16 μg/mL) for S. aureus ATCC 25923, ciprofloxacin (4 and 64 mg/L) for S. aureus 1199B, ciprofloxacin (0.5 and 2 mg/L) for S. aureus K2378. All experiments were performed in duplicate.
(§4) Efflux pump inhibition assays were then performed against resistant Staphylococcus aureus strains SA 1199B and SA K2378 for bis-indolic derivatives. […] The minimal inhibitory concentration (MIC) of the bis-indolic compound allowing a complete inhibition of the bacterial growth in the presence of ciprofloxacin was determined.

Data set [7] has as its system Staphylococcus aureus K2378 (overexpresses the efflux pump NorA from a multicopy plasmid). The data set is described as above. The settings on record: S. aureus K2378; in the presence of ciprofloxacin 0.5 mg/L. The class given is cell-based. The method, then:
as §2, §3, §4

Data set [8] relates to HCT116 (human colon tumor). The data set can be described thus: In vitro cytotoxicity. As to conditions: read-out: % of cellular growth inhibition. The class given is cell-based. The protocol: (§5) In vitro cytotoxicity was assayed on three cell lines—KB (human mouth carcinoma), MCR5 (human lung fibroblast) and HCT116 (human colon tumor). Results are presented in table IV as % of cellular growth inhibition in presence of 10^−5 M and 10^−6 M of the tested bis-indolic derivatives.

The subject of data set [9] is KB (human mouth carcinoma). As to the kind of experiment: In vitro cytotoxicity. As to conditions: read-out: % of cellular growth inhibition. Type of data set: cell-based. The protocol:
as §5

Data set [10] relates to MRC5 (human lung fibroblast). The data set can be described thus: In vitro cytotoxicity. The settings on record: read-out: % of cellular growth inhibition. Type of data set: cell-based. The method, then: as §5

Some results are limits rather than exact numbers.

On to `COc1cccc(OC)c1C(=O)N[C@@H]1C(=O)N2[C@@H]1SC(C)(C)[C@@H]2C(=O)O` [methicillin], for which, in the data set with S. aureus, the mutation frequency was ~10^−9.

Turning to `O=C(NC(C(=O)O)c1c[nH]c2ccc(Br)cc12)c1c[nH]c2ccc(Br)cc12` (stereo not shown) [Compound 12, 2-(5-Bromo-1H-indol-3-yl)-2-(5-bromo-1H-indole-3-carboxamido) acetic acid], the melting point (in general, the temperature, or range, at which the solid turns liquid) turned out to be 195 °C. The minimum inhibitory concentration (MIC) (as a rule, the lowest concentration that inhibits growth of the organism) in data set [1] is more than 32 µg/mL. Also, in the data set on S. aureus ATCC 25923, the MIC was more than 32 µg/mL. Also, the MIC in the data set with S. aureus ATCC 29213 is more than 32 µg/mL. The MIC in data set [2] was more than 32 µg/mL. Also, the MIC with S. aureus ATCC 6538 was more than 32 µg/mL. Further, the minimum inhibitory concentration (MIC) with S. aureus ATCC 9144 was more than 32 µg/mL. Also, the MIC with S. aureus CIP 103428 was more than 32 µg/mL. The MIC in data set [3] was more than 32 µg/mL. Also, the minimal inhibitory concentration (MIC) in the data set on S. aureus CIP 65.6 is more than 32 µg/mL. Besides, the MIC in the data set on S. aureus SA-1199B was more than 32 µg/mL. Further, the MIC in data set [4] is more than 32 µg/mL. Also, the MIC in [5] was more than 32 µg/mL. Besides, the MIC in the data set on S. epidermidis CIP 81.55 is more than 32 µg/mL. In addition, the “MIC, mg/L (Ciprofloxacin concentration, mg/L)” value (“MIC, mg/L” for short) in data set [6] (in the presence of ciprofloxacin 2 mg/L) is on record as 32 (2) mg/L. The “MIC, mg/L” value in data set [6] (in the presence of ciprofloxacin 4 mg/L) is 64 (4) mg/L. Besides, the “MIC, mg/L” value in data set [7] is 64 (0.5) mg/L. Besides, in data set [8] (HCT-116, 10^−5 M), the inhibition (in general, the share of the control response that was lost under treatment) at 10 µM was found to be 0%. The inhibition at 1 µM in data set [8] (HCT-116, 10^−6 M) worked out at 0%. The inhibition at 10 µM in data set [9] (10^−5 M) was determined as 0%. Further, the inhibition at 1 µM in [9] (10^−6 M) is 0%. The inhibition at 10 µM in data set [10] (10^−5 M) amounted to 3 ± 3%. In data set [10] (10^−6 M), the inhibition at 1 µM is 3%.

Take `Cc1onc(-c2ccccc2)c1C(=O)N[C@@H]1C(=O)N2[C@@H]1SC(C)(C)[C@@H]2C(=O)O` [oxacillin]: the mutation frequency in the data set on S. aureus was ~10^−9.
